What was measured:
LX-2 cells [1] = experiment: Cell cytotoxicity assay (MTS); assay type: cell-based, human; settings: 0-300 nM, 24, 48 or 72 hours
Protocol: (§1) At the beginning of each experiment, stellate cells (LX-2 cells or phHSCs) were serum-starved overnight in DMEM supplied with 0.1% BSA (without antibiotic) to synchronize metabolic activities of the cells. The cells were then exposed to different working concentration of either AZD3355 or sorafenib for 24, 48 and 72 hours.
(§2) 5,000 LX-2 cells or 10,000 phHSCs were plated per well in 96 well plates. Cells were serum starved overnight in DMEM supplemented with 0.1% BSA (without antibiotic). Cells were then incubated with different concentrations of AZD3355 for indicated durations and MTS assays were accomplished using CellTiter 96 AQueous One Solution Cell Proliferation Assay kit (Promega, WI) according to manufacturer's protocol.

phHSCs [2] = experiment: Cell cytotoxicity assay (MTS); assay type: cell-based, human; settings: 30 nM or 100 nM, 48 or 72 hours
Protocol: as §1, §2

LX-2 cells [3] = experiment: Cell apoptosis assay (caspase-3/7 activity); assay type: cell-based, human; settings: any dosage, 72 hours
Protocol: as §1
(§3) 5,000 LX-2 cells or 10,000 phHSCs were plated per well in 96-well clear bottom black plates. After overnight serum starvation in DMEM supplemented with 0.1% BSA (without antibiotic) the cells were exposed to AZD3355 at indicated concentration. For positive apoptotic control the cells were treated with 3% DMSO. After 72 hours of drug exposure the fluorescence signal of Caspase-3 and -7 activities were measured in Synergy HT (BioTek Instrument Inc., VT) spectrofluorometer by using Apo-ONE Homogeneous Caspase-3/7 Assay kit (Promega, WI) according to manufacturer's protocol.

phHSCs [4] = experiment: Cell apoptosis assay (caspase-3/7 activity); assay type: cell-based, human; settings: any dosage, 72 hours
Protocol: as §1, §3

human liver slices = experiment: Liver slice assay, histopathology and H&E staining; assay type: cell-based; settings: 24 hours
Protocol: Ten human liver pieces were collected from the Mount Sinai biorepository. The samples were prepared by coring the liver with 8 mm cylindrical coring tools. The liver cores were kept in ice cold WE medium, with GlutaMAX supplemental. A liver core was then mounted on a specimen plate with cyanoacrylate adhesive. Liver slices (approximately 200 μm in thickness) were placed in ice cold Krebs-Henesleit buffer in the presence of carbogen gas. There was then a 1 hour pre-incubation in WE GlutaMAX media with gentamicin in 95% O2 and 5% CO2 at 37° C. in a humidified rocker chamber to restore ATP levels.
The liver slices were then cultured in WE GlutaMAX media with gentamicin in 95% O2 and 5% CO2 at 37° C. in a humidified rocker chamber with slow 70 rpm rocking in the presence of AZD3355 in the amounts of 250 nM, 500 nM, 1000 nM, or 2000 nM, or sorafenib at 1000 nM., or control vehicle (saline water).
After 24 hours, the tissue slices were harvested for either RNA isolation and quantitative PCR for measurements of Col1α1, TNFα, and IL-6 expression, or for histopathology and hematoxylin and eosin (H&E) staining as described in Example 3.

[5] = NASH mouse model, body weight; assay type: in vivo; settings: male and female NASH model mice, 12-week treatment
Protocol: The experimental protocol was reviewed and approved by the Institutional Animal Care and Use Committee (IACUC) at Icahn School of Medicine at Mount Sinai, NY. Male and Female C57BL/6J mice (age: 6 weeks; weight: 20-25 g) were purchased from Jackson Laboratories (Farmington, CT). Animals were housed in a 12 hours light—12 hours dark cycle in the animal facility at Icahn School of Medicine at Mount Sinai, NY and handled following guidelines for the care and use of laboratory animals. Male and female mice were maintained in separate cages.
Carbon tetrachloride (CC14) was purchased from Sigma-Aldrich, MO. CC14 was freshly dissolved in corn oil at final concentration of 5% before injection. […]
Western diet containing 21.2% fat (42% Kcal), 41% sucrose and 1.25% cholesterol by weight was purchased from Envigo, WI (Teklad Custom diet Cat #TD.120528). […] During change of food and water we have been measured the amount of food and water intake and the data was collected.
Four separate groups of mice were given either 0.5% methylcellulose (as Vehicle) or AZD3355 at 10 mg/kg (low dose) body weight of mice or 30 mg/kg (high dose) body weight of mice by twice daily (BID (5 days/week)) and OCA at 30 mg/kg body weight of mice by daily (QD (5 days/week)) through oral route for up to next 12 weeks (week 13 to week 24). […] All animals were closely monitored the health conditions and behavior.

In the case of NC[C@@H](F)C[PH](=O)O [AZD3355, [(2R)-3-amino-2-fluoropropyl] phosphinic acid], the “cell cytotoxicity (MTS)” value (LX-2 cells [1]) is reported as “no significant cell cytotoxicity observed except for in LX-2 cells at 300 nM”, the “cell cytotoxicity (MTS)” value (phHSCs [2]) is reported as “no significant cell cytotoxicity” and the “apoptotic effect (caspase-3/7 activity)” value (LX-2 cells [3]) is reported as “no apoptotic effect”. For the same molecule, the “apoptotic effect (caspase-3/7 activity)” value (phHSCs [4]) was “no apoptotic effect”, the “liver cells viability (H&E)” value (human liver slices) was “did not change” and the “body weight during treatment” value [5] was “stable”.
